From patent US20130296358A1, “3-SPIROCYCLIC PIPERIDINE DERIVATIVES AS GHRELIN RECEPTOR AGONISTS” (priority 2012, published 2013)

Legend:
[1] = molecular target: T1, human recombinant ghrelin receptor (GHS-R1a) (Homo sapiens, UniProt Q92847); assay: cAMP assay (HTRF), CHO-hGHS-R1a cells; type: cell-based; conditions: relative to the ghrelin response (defined as 100%)
T1 construct: host or cells: CHO-K1
Method: (§1) Chinese hamster ovary (CHO-K1) cells expressing human recombinant ghrelin receptor (GHS-R1a) were purchased from Euroscreen (ES-410-C) and propagated in UltraCHO medium containing glutamine and supplemented with 1% heat inactivated foetal calf serum (FCS), 100 U/ml penicillin, 100 mg/l streptomycin and 0.8 g/l geneticin. Cells were sub-cultured twice a week with a 1:10 dilution. For passaging, cells were washed with 1× DPBS without calcium and magnesium, trypsinised for 10 min with 0.05% Trypsin/EDTA and resuspended in cell culture medium.
The Homogeneous Time-Resolved Fluorescence (HTRF) cAMP dynamic 2 kit (Cisbio International, France) was used as follows. CHO-hGHS—R1a or CHO-rGHS—R1a cells were seeded in a volume of 25 μl culture media at 10,000 cells/well (400,000 cells/ml) in Greiner white 384-well high volume plates and incubated overnight (18-24 h) at 37° C./5% CO2. Then, media was removed and 6 μl assay buffer [HBSS, 10 mM Hepes, 0.2% (w/v) BSA, 1.7 mM IBMX, (pH7.4)] were added to the wells. To generate a dose response up to 30 μM, 10 mM compound stocks in 100% (v/v) DMSO were firstly diluted in 50% (v/v) DMSO followed by a further dilution into assay buffer. Then, 4 μl of 2.5× compound (dose response as 9 point log serial dilution in assay buffer from 30 μM as maximum concentration) were added to each well achieving a final DMSO assay concentration of 0.8% (v/v). 0.1 μM forskolin was added as positive control. After 30 min (rGHS—R1a cell line) or 60 min (hGHS—R1a cell line) incubation at 37° C./5% CO2, 5 μl of cAMP-d2 and 5 μl of anti-cAMP antibody-cryptate, (both made in lysis buffer), were added to the plate followed by 1 h incubation at RT. During this time, cAMP produced by the cells competed with cAMP-d2 for the anti-cAMP antibody-cryptate molecule. Then, the plate was read on the Pherastar instrument (BMG, Germany) at two different emission wavelengths ([…]). Increasing levels of endogenous cAMP produced by cells could be followed by a decrease of FRET fluorescent signal and viceversa. Values represented by a change in arbitrary fluorescence ratios (665/620) were converted into cAMP concentrations by using a standard curve, the reagents for which were supplied with the kit. EC50 values of agonists were calculated using the nonlinear logistic function of the Prism 5 software (GraphPad, USA). Emax were expressed as relative values of the ghrelin response, which was defined as 100%.

rat fundus = assay: Rat fundus contractility assay (EFS-induced contraction of muscle strips); conditions: for EC50: increase of EFS-induced contraction, mean of preparations from at least 3 animals; for Emax: relative to the response to ghrelin (100 nM), defined as 100%
Method: Male Sprague Dawley rats (180-250 g) were culled by cervical dislocation and the fundus was removed. Each fundus was placed on a Krebs Henseleit (KH) buffer soaked dissection dish and cut along the long curvature to form a flattened sheet that was pinned in each corner. Four adjacent longitudinal strips (10×3 mm) were cut and the mucosa removed by sharp dissection. Each muscle strip was mounted in a 10 ml organ bath containing oxygenated KH at 37° C. Each strip was connected to an isometric force transducer, calibrated initially using a 5 g weight. The signal (g tension) was amplified and responses recorded by a Powerlab data capture system, connected to a computer running Labchart software (version 5.0). Tissues were placed under 1 g tension for an equilibration period of 30 min or until the baseline tension had stabilised. Carbachol (CCh, 100 nM) was then administered to establish the maximum contractile response of each preparation. Tissues were washed thoroughly and left for 30 min to re-equilibrate. Next, the muscle strips underwent electrical field stimulation (EFS). Maximal EFS pulse trains of 12V, 5 Hz, 0.1 msec pulse width, for 2 sec every 60 sec were applied until consistent electrically-stimulated phasic contractions were recorded. The voltage was then reduced in 1V increments until a consistent submaximal (EC50-75) EFS response was observed. Ghrelin (100 nM) was administered and left until a maximum response was obtained. Tissues were then washed thoroughly and left for 30 min. Once the EFS-induced contraction had re-stabilised, cumulative additions (10 nM-10 μM) of each test compound were administered. Individual responses were calculated by determining the peak of the EFS-induced contraction minus the baseline. […] The mean EC50 value for compounds was generated from data obtained on stomach preparations from at least 3 different animals.

[2] = molecular target: T1, human recombinant ghrelin receptor (GHS-R1a); assay: Calcium assay, CHO-K1 cells expressing hGHS-R1a (Fluo-4); type: cell-based; conditions: CHO-K1, relative to the Emax induced by MK-0677 (defined as 100%); read-out: hGHS-R1a Ca assay Emax/%
Method: as §1
Cells were diluted to achieve 1×10^6 cells/ml, seeded in 384-well black clear bottom CellBind plates at 25000 cells/well (25u1) and incubated overnight at 37° C./5% CO2 Cells were expected to be 85-90% confluent on the day of assay (checked under the microscope) to ensure a high quality assay. Media was manually removed and 40 μl of loading solution containing probenecid and Fluo-4 no wash dye (a calcium indicator, Invitrogen F36206) were added to each well. After 30 min at 37° C. followed by another 30 min at RT, cpds were added to the wells. To generate a dose response up to 30 μM, 10 mM compound stocks in 100% (v/v) DMSO were firstly diluted in 50% (v/v) DMSO. Then, serial dilutions aimed at a full logarithmic dose responses (8 point) were performed in assay buffer [1×HBSS, 20 mM Hepes, 0.1% (w/v) BSA] to give 2.5% (v/v) DMSO and 5× final compound concentrations. The final assay DMSO concentration was 0.5% (v/v). After loading the cells with Fluo-4 containing solution, plates were read on a CeIlLux instrument (Perkin Elmer). A protocol set up to add 10 μl of 5× compound and to read the plate for 60sec after adding the compound at 17th sec was used. Fluorescence excitation took place at 494 nm and emission at 516 nm. EC50 values of agonists were calculated by fitting the percent stimulation over background [(Max-Min)/Min] using the nonlinear logistic function of the Prism 5 software (GraphPad, USA).

[3] = Aqueous solubility of crystalline L-malate salt forms versus free base; type: physicochemical; conditions: compared to the free base amorphous form

T1 sequence (Q92847 whole entry): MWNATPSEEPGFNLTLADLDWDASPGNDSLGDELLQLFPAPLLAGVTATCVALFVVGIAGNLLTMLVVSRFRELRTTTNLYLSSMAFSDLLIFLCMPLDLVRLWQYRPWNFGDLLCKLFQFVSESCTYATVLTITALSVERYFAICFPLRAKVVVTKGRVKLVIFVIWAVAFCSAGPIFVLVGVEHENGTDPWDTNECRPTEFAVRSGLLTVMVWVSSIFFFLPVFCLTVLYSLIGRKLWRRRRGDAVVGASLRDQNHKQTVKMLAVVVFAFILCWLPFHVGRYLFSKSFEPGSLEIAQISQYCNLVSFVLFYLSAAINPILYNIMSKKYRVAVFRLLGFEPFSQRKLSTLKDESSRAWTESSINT

SMILES	Emax [1]	EC50 (rat fundus; Rattus norvegicus)	Emax [2]	EC50 (rat fundus)	aqueous solubility [3]	Emax (rat fundus; Rattus norvegicus)
CN1C(=O)C2(CCCN(C(=O)[C@@H](COCc3ccccc3)NC(=O)C(C)(C)N)C2)C1c1ccccc1 (single isomer, unassigned) [Example 2.0(ii)]	193%	–	99%	17 nM	–	63%
CN1C[C@@H](c2ccccc2)[C@@]2(CCCN(C(=O)[C@@H](COCc3ccccc3)NC(=O)C(C)(C)N)C2)C1=O.O=C(O)C[C@H](O)C(=O)O [2-Amino-N—[(R)-1-benzyloxymethyl-2-((4S,5R)-2-methyl-1-oxo-4-phenyl-2,7-diaza-spiro[4.5]dec-7-yl)-2-oxo-ethyl]-2-methyl-propionamide L-malate salt]	–	–	–	–	increased aqueous solubility	–
Cc1ccc(C2CN(C)C(=O)C23CCCN(C(=O)[C@@H](COCc2ccccc2)NC(=O)C(C)(C)N)C3)cc1.O=C(O)C[C@H](O)C(=O)O (stereo partly drawn) [2-amino-N-((2R)-3-(benzyloxy)-1-(2-methyl-1-oxo-4-p-tolyl-2,7-diazaspiro[4.5]decan-7-yl)-1-oxopropan-2-yl)-2-methylpropanamide L-malate salt]	–	–	–	–	increased aqueous solubility	–
CN1C[C@@H](c2ccc(F)cc2)[C@@]2(CCCN(C(=O)[C@@H](COCc3ccccc3)NC(=O)C(C)(C)N)C2)C1=O.O=C(O)C[C@H](O)C(=O)O [2-amino-N-((2R)-3-(benzyloxy)-1-((4S,5R)-4-(4-fluorophenyl)-2-methyl-1-oxo-2,7-diazaspiro[4.5]decan-7-yl)-1-oxopropan-2-yl)-2-methylpropanamide L-malate salt]	–	–	–	–	increased aqueous solubility	–

Continued, in another order:

Emax [1]	EC50 (rat fundus; Rattus norvegicus)	Emax [2]	EC50 (rat fundus)	aqueous solubility [3]	SMILES	Emax (rat fundus; Rattus norvegicus)
168%	68 nM	107%	–	–	C[C@H](OCc1ccccc1)[C@@H](NC(=O)C(C)(C)N)C(=O)N1CCCC2(C1)C(=O)N(C)CC2c1ccccc1 (single isomer, unassigned) [Example 1.34]	115%
164%	59 nM	86%	–	–	CC(C)(C)CN1CC(c2ccccc2)C2(CCCN(C(=O)[C@@H](COCc3ccccc3)NC(=O)C(C)(C)N)C2)C1=O (single isomer, unassigned) [Example 1.40]	117%
197%	7.5 nM	89%	–	–	CN1C[C@@H](c2ccc(F)cc2)[C@@]2(CCCN(C(=O)[C@@H](COCc3ccccc3)NC(=O)C(C)(C)N)C2)C1=O [Example 1.2, 2-Amino-N-((2R)-3-(benzyloxy)-1-((4S,5R)-4-(4-fluorophenyl)-2-methyl-1-oxo-2,7-diazaspiro[4.5]decan-7-yl)-1-oxopropan-2-yl)-2-methylpropanamide]	100%
